The record followed here is patent publication US20240400572A1, “COMPOUNDS AND METHODS FOR TREATING CANCERS THAT ARE MGMT DEFICIENT REGARDLESS OF MMR STATUS” (Yale University, priority 2021, published 2024).

Entries after “also recorded” stand apart in the source; their conditions may differ.

Data set [1] relates to Isogenic glioma (Ln 229) cells, MGMT−/MMR−. In words: Clonogenic Survival Assay (FIG. 9). Particulars: identical concentrations of test compound. It is filed as cell-based, human. As to the method:
Clonogenic Survival Assay (FIG. 9): Isogenic glioma (Ln 229) cells were pretreated with the test drug in culture for 48-72 hours at the specified dilutions. Cells were then transferred in media without drug to 6-well plates in triplicate at 3-fold dilutions ranging from 9,000 to 37 cells per well. After 14 days, plates were washed with PBS and stained with crystal violet. Colonies were counted by hand. Counts were normalized to plating efficiency of the corresponding treatment condition.

The subject of data set [2] is DLD1 MSH6-deficient cells. In words: Short-term cell viability assay with or without O^6BG. It is filed as cell-based, human. The settings on record: DLD1 (MGMT+, MSH6−), with or without 10 μM O^6BG-induced MGMT depletion. The source says:
(§1) FIGS. Z2A-Z2H. […] (FIG. Z2A) IC50 values derived from short-term viability assays in LN229 MGMT+/−, MMR+/− cells treated with TMZ (1a) derivatives. ^aMGMT TI (therapeutic index)=IC50 (MGMT+/MMR+) divided by IC50 (MGMT−/MMR+). ^bMMR RI (resistance index)=IC50 (MGMT−/MMR−) divided by IC50 (MGMT−/MMR+). (FIG. Z2B) Short-term viability assay curves for TMZ (1a), CCNU (14), KL-85 (4b), and KL-50 (4a) in LN229 MGMT+/−, MMR+/− cells. (FIG. Z2C) Clonogenic survival curves for TMZ (1a) in LN229 MGMT+/−, MMR+/− cells, with representative images of wells containing 1000 plated cells treated with 30 μM TMZ (1a). (FIG. Z2D) Clonogenic survival curves for KL-50 (4a) in LN229 MGMT+/−, MMR+/− cells, with representative images of wells containing 1000 plated cells treated with 30 μM KL-50 (4a). (FIG. Z2E) Short-term viability assay curves for TMZ (1a) in DLD1 MSH6-deficient cells pre-treated with 0.01% DMSO control (CTR) or 10 μM O^6BG (+O^6BG) for 1 h prior to TMZ (1a) addition to deplete MGMT. (FIG. Z2F) Short-term viability assay curves for KL-50 (4a) in DLD1 MSH6-deficient cells pre-treated with 0.01% DMSO control (CTR) or 10 μM O^6BG (+O^6BG) for 1 h prior to KL-50 (4a) addition. (FIG. Z2G) Short-term viability assay curves for TMZ (1a) in HCT116 MLH1−/− cells or HCT116 cells complemented with chromosome 3 carrying wildtype MLH1 (+Chr3) pre-treated with 0.01% DMSO control or 10 μM O^6BG (+O^6BG) for 1 h prior to TMZ (1a) addition. (FIG. Z2H) Short-term viability assay curves for KL-50 (4a) in HCT116 MLH1−/− cells or HCT116 cells complemented with chromosome 3 carrying wildtype MLH1 (+Chr3) pre-treated with 0.01% DMSO control or 10 μM O^6BG (+O^6BG) for 1 h prior to KL-50 (4a) addition. For (FIG. Z2B), (FIG. Z2C), (FIG. Z2D), (FIG. Z2E), (FIG. Z2F), (FIG. Z2G), and (FIG. Z2H), points, mean; error bars, SD; n≥3 technical replicates.
(§2) Short-term Cell Viability Assay. Cells were seeded in 96-well plates at 1000 or 2000 cells/well and allowed to adhere at 23° C. for 60 min and then incubated overnight at 37° C. Cells were treated with indicated concentrations of compounds in triplicate for 4-6 days prior to fixation with 3.7% paraformaldehyde and nuclear staining with 1 μg/mL Hoechst 33342 dye. Cells were imaged on a Cytation 3 imaging reader (BioTek) and quantified using CellProfiler software.

Data set [3] concerns HCT116 MLH1−/− cells and HCT116+Chr3 cells. The description is as above. It is filed as cell-based, human. Particulars: for cytotoxicity in HCT116 MLH1−/− cells (in words): MLH1-deficient, with or without 10 μM O^6BG; for cytotoxicity in HCT116+Chr3 cells (in words): complemented with chromosome 3 containing MLH1, with or without 10 μM O^6BG.
Description: as §1, §2

For data set [4], the system named is LN229 MGMT−/MMR+ and MGMT−/MMR− cells. Kind of data set: IR alkaline comet assay. It is filed as cell-based, human. Particulars: for effect on IR-induced comet tail, ICL detection (in words) / comet tailing in the absence of IR (in words): MGMT−/MMR+ cells; for effect on IR-induced comet tail, ICL detection (in words): 200 μM for 24 h; for effect on IR-induced comet tail, ICL detection (in words) / rate of ICL formation, DNA mobility after IR (in words): 10 Gy; for comet tailing in the absence of IR (in words): TMZ and KL-50 200 μM, MMC 0.1 or 50 μM; for DNA damage in unirradiated samples (in words) / rate of ICL formation, DNA mobility after IR (in words): MGMT−/MMR− cells, 200 μM, 2, 8 or 24 h; for DNA damage in unirradiated samples (in words): 0 Gy. As to the method:
IR Alkaline Comet Assay. Assay was performed utilizing the CometAssay Kit (Trevigen) according to the alkaline assay protocol, with the addition of slide irradiation post-lysis. Cells were trypsinized, washed with 1×PBS, added to melted Comet LMAgarose (Trevigen), and spread on Trevigen CometSlides at a density of 1000 cells per sample in 50 μL. Lysis solution (Trevigen) with 10% DMSO was added overnight at 4° C. Slides were removed from lysis buffer and irradiated to 0 or 10 Gy using an XRAD 320 X-Ray System (Precision X-Ray) at 320 kV, 12.5 mA, and 50.0 cm SSD, with a 2 mm Al filter and 20 cm×20 cm collimator. Slides were then placed in alkaline buffer (200 mM NaOH, 1 mM EDTA) for 45 min, followed by electrophoresis in 850 mL alkaline buffer for 45 min at 4° C. Slides were washed and stained with SYBR gold (Invitrogen) per Trevigen assay protocol. Slides were imaged on a Cytation 3 imaging reader (BioTek), and comets were analyzed using CometScore 2.0 software (TriTek).
We used a well-established comet assay adapted for ICL detection to determine if ICLs were formed in MGMT− cells treated with KL-50 (4a) (FIG. Z3, A and B). In this assay, cells were sequentially exposed to genotoxins and ionizing radiation, and then analyzed by single cell alkaline gel electrophoresis. Attenuation of the IR-induced comet tail is indicative of ICL formation.

Data set [5] concerns LN229 MGMT+/−, MMR+/− cells. Kind of data set: Cell cycle analysis. It is filed as cell-based, human. Particulars: 20 μM, 24 to 48 h; cell status given in the value. As to the method: Cell Cycle Analysis. Cell cycle analysis was performed using integrated Hoechst nucleic acid dye fluorescence. Briefly, integrated Hoechst fluorescence intensity was log 2 transformed and histograms from DMSO-treated cells were used to identify the centers of the 2N and 4N DNA peaks. These values were used to normalize the 2N DNA peak to 1 and the 4N DNA peak to 2. Cells were then classified by normalized log 2 DNA content as GI (0.75-1.25), S (1.25-1.75), or G2 (1.75-2.5) phase cells. The percentage of cells within each phase of the cell cycle was determined for each treatment condition. The three sets of Hoechst-stained cells corresponding to the three separate DNA foci stains were treated as three independent analyses.

Data set [6] relates to LN229 MGMT−/MMR− intracranial tumors. Kind of data set: Intracranial tumor study. Particulars: 25 mg/kg IP M-F×1 week as printed. It is filed as in vivo, mouse.

On to `NC(=O)c1ncn2c(=O)n(CCF)nnc12` [KL-50, 3-(2-fluoroethyl)-4-oxo-3H,4H-imidazo[4,3-d][1,2,3,5]tetrazine-8-carboxamide], for which, in data set [1], the “cells survived (fraction)” value is recorded as “less than 10^−4”. The “cytotoxicity in DLD1 cells (in words)” value in data set [2] was “toxic to these cells, but only after O^6BG-induced MGMT depletion”. In addition, in data set [3], the “cytotoxicity in HCT116 MLH1−/− cells (in words)” value was “selective tumor cell killing specifically in the setting of O^6BG-induced MGMT suppression” and the “cytotoxicity in HCT116+Chr3 cells (in words)” value was “selective tumor cell killing specifically in the setting of O^6BG-induced MGMT suppression”. Also, in data set [4], the “effect on IR-induced comet tail, ICL detection (in words)” value was “reduced the % DNA in the tail to levels similar to those seen for 0.1 μM MMC”; the “comet tailing in the absence of IR (in words)” value is “induced tailing”; the “DNA damage in unirradiated samples (in words)” value is “induced maximal damage at 2 h, which decreased over time”; the “rate of ICL formation, DNA mobility after IR (in words)” value is “time-dependent decrease in DNA mobility”. Moreover, in data set [5], the “cell cycle arrest (in words)” value is listed as “increasing G2 arrest on progression from 24 to 48 h in MGMT−/MMR+ cells; also recorded: attenuated G2 arrest in MGMT−/MMR− cells; also recorded: moderate G2 arrest in MGMT+/MMR+ cells”. Besides, the “intracranial tumor growth by BLI (in words)” value in data set [6] is recorded as “effective”.
Turning to `Cn1nnc2c(C(N)=O)ncn2c1=O` [TMZ, temozolomide, reference compound], in data set [1], the cells survived result is listed as “about 100%”. Moreover, the “cytotoxicity in DLD1 cells (in words)” value in data set [2] was “inactive”. Also, in data set [3], the “cytotoxicity in HCT116 MLH1−/− cells (in words)” value is “inactive” and the “cytotoxicity in HCT116+Chr3 cells (in words)” value is on record as “enhanced sensitivity to TMZ (1a), which was further potentiated by MGMT depletion”. Further, in data set [4], the “effect on IR-induced comet tail, ICL detection (in words)” value is “did not reduce DNA migration following IR”; the “comet tailing in the absence of IR (in words)” value is on record as “induced tailing”; the “DNA damage in unirradiated samples (in words)” value is listed as “induced maximal damage at 2 h, which decreased over time”; the “rate of ICL formation, DNA mobility after IR (in words)” value is “did not induce a statistically significant decrease in DNA migration within 24 h”. Moreover, in data set [5], the “cell cycle arrest (in words)” value is “This effect in MGMT−/MMR− cells was absent; also recorded: moderate G2 arrest in MGMT+/MMR+ cells”. In addition, the “intracranial tumor growth by BLI (in words)” value in data set [6] is “only transiently suppressed tumor growth”.
